In general, IC50 refers to the concentration at which inhibition is half-maximal.

Counter-ions that a name gives are not always drawn. Bounds are passed on as bounds.

The target in one test is T1, NS3-NS4A protease (Hepatitis C virus genotype 1a, UniProt P27958).
T1 construct: Recombinant E. coli or Baculovirus full-length NS3 was diluted to 3.33 μM with assay buffer; made in house; host or cells: E. coli or baculovirus (BV) system
T1 sequence (P27958 1027-1657): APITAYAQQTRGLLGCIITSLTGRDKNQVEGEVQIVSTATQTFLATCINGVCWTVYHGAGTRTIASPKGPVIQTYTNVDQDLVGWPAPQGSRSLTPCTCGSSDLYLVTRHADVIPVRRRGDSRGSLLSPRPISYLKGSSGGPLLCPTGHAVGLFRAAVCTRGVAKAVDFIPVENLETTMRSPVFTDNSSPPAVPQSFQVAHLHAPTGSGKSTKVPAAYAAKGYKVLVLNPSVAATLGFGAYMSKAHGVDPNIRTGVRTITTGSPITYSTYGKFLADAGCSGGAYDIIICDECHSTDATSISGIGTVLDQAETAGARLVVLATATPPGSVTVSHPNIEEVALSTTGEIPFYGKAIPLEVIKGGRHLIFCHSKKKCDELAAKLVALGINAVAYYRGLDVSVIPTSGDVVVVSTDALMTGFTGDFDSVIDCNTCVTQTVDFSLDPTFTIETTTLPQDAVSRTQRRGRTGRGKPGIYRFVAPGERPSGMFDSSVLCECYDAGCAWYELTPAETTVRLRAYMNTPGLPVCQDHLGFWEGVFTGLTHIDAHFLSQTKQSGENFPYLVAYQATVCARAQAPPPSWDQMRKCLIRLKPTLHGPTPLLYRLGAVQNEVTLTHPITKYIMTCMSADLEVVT
The experiment in a line: NS3-NS4A protease assay (NS3 inhibition assay, RETS1 substrate), Section B.
Conditions: not given
It counts as biochemical. As for the experimental part: NS3 complex formation with NS4A-2
Recombinant E. coli or Baculovirus full-length NS3 was diluted to 3.33 μM with assay buffer and the material transferred to an eppendorf tube and place in water bath in 4° C. refrigerator. The appropriate amount of NS4A-2 to 8.3 mM in assay buffer was added to equal the volume of NS3 in step 2.1.1 (conversion factor −3.8 mg/272 μL assay buffer). The material was transferred to an eppendorf tube and placed in a water bath in a 4° C. refrigerator.
After equilibration to 4° C., equal volumes of NS3 and NS4A-2 solutions were combined in an eppendorf tube, mixed gently with a manual pipettor, and the mixture incubated for 15 minutes in the 4° C. water bath. Final concentrations in the mixture were 1.67 μM NS3, 4.15 mM NS4A-2 (2485-fold molar excess NS4A-2).
After 15 minutes at 4° C., the NS3/NS4A-2 eppendorf tube was removed and placed in a room temperature water bath for 10 minutes. NS3/NS4A-2 was aliquoted at appropriate volumes and store at −80° C. (E. coli NS3 run at 2 nM in assay, aliquot at 25 μL. BV NS3 run at 3 nM in assay, aliquot at 30 μL.
Step 2.2.5. Sample compounds were dissolved to 10 mM in DMSO then diluted to 2.5 mM (1:4) in DMSO.
Step 2.2.6. The E. coli NS3/NS4A-2 was diluted to 4 nM NS3 (1:417.5 of 1.67 μM stock−18 μL 1.67 μM stock+7497 μL assay buffer).
The BV NS3/NS4A-2 was diluted to 6 nM NS3 (1:278.3 of 1.67 μM stock−24 μL 1.67 μM stock+6655 μL assay buffer).
Step 2.2.7. Using the manual multichannel pipettor, and being careful not to introduce bubbles into the plate, 50 μL assay buffer was added to wells A01-H01 of a black Costar 96-well polypropylene storage plate.
Step 2.2.8. Using the manual multichannel pipettor, and being careful not to introduce bubbles into the plate, 50 μL of diluted NS3/NS4A-2 from step 2.2.6 was added to wells A02-H12 of plate in step 2.2.7.
Step 2.2.9. Using the manual multichannel pipettor, and being careful not to introduce bubbles into the plate, 25 μL of the wells in drug dilution plate in step 2.2.5 were transferred to corresponding wells in assay plate in step 2.2.8. The tips on multichannel pipettor were changed for each row of compounds transferred.
Step 2.2.10. Using the manual multichannel pipettor, and being careful not to introduce bubbles into the plate, the wells from the assay plate in step 2.2.9 were mixed by aspirating and dispensing 35 μL of the 75 μL in each well five times. The tips on multichannel pipettor were changed for each row of wells mixed.
Step 2.2.11. The plate was covered with a polystyrene plate lid, and the plate from step 2.2.10 containing NS3 protease and sample compounds was pre-incubated 10 minutes at room temperature.
While the plate from step 2.2.11 was pre-incubating, the RETS1 substrate was diluted in a 15 mL polypropylene centrifuge tube. The RETS1 substrate was diluted to 8 μM (1:80.75 of 646 μM stock−65 μL 646 μM stock+5184 μL assay buffer).
After the plate in step 2.2.11 was done pre-incubating, and using the manual multichannel, 25 μL of substrate was added to all wells on the plate. The contents of the wells were quickly mixed, as in step 2.2.10, but mixing 65 μL of the 100 μL in the wells.
The plate was read in kinetic mode on the Molecular Devices SpectraMax Gemini XS plate reader. Reader settings: Read time: 30 minutes, Interval: 36 seconds, Reads: 51, Excitation λ: 335 nm, Emission λ: 495 nm, cutoff: 475 nm, Automix: off, Calibrate: once, PMT: high, Reads/well: 6, Vmax pts: 21 or 28/51 depending on length of linearity of reaction.
IC50s were determined using a four parameter curve fit equation, and converted to Ki's using the following Km's:
where Ki=IC50/(1+[S]/Km))
Compound `CC(C)[C@@H](NC(=O)OC(C)(C)C)C(=O)N[C@H]1CCCCC/C=C\[C@@H]2C[C@@]2(C(=O)O)NC(=O)[C@@H]2C[C@@H](OC(=O)N3CCc4ccccc4C3)CN2C1=O` [AR00298989, (1S,4R,6S,14S,18R)-14-(2-tert-Butoxycarbonylamino-3-methyl-butyrylamino)-18-(3,4-dihydro-1H-isoquinoline-2-carbonyloxy)-2,15-dioxo-3,16-diaza-tricyclo[14.3.0.0^4,6]nonadec-7-ene-4-carboxylic acid] had an IC50 of under 10 µM.

Still in this test, the particulars now being: read-out: NS3-NS4A IC50.
Regarding `N[C@H]1CCCCC/C=C\[C@@H]2C[C@@]2(C(=O)NS(=O)(=O)C2CC2)NC(=O)[C@@H]2C[C@@H](OC(=O)N3Cc4cccc(F)c4C3)CN2C1=O` [AR00424874, (1S,4R,6S,14S,18R)-4-Fluoro-1,3-dihydro-isoindole-2-carboxylic acid 14-amino-4-cyclopropanesulfonylaminocarbonyl-2,15-dioxo-3,16-diaza-tricyclo[14.3.0.0^4,6]nonadec-7-en-18-yl ester, HC1 salt], the IC50 is under 0.1 µM.

Turning to `COc1ccccc1C1CCN(C(=O)O[C@@H]2C[C@H]3C(=O)N[C@]4(C(=O)O)C[C@H]4/C=C\CCCCC[C@H](NC(=O)OC(C)(C)C)C(=O)N3C2)CC1` [AR00320576, (1S,4R,6S,14S,18R)-14-tert-Butoxycarbonylamino-18-[4-(2-methoxy-phenyl)-piperidine-1-carbonyloxy]-2,15-dioxo-3,16-diaza-tricyclo[14.3.0.0^4,6]nonadec-7-ene-4-carboxylic acid], the IC50 is under 10 µM.

As for `CC(C)(C)OC(=O)N[C@H]1CCCCCCC[C@@H]2C[C@@]2(C(=O)O)NC(=O)[C@@H]2C[C@@H](OC(=O)N3CCc4ccccc4C3)CN2C1=O` [AR00312023], the IC50 is under 1 µM.

Turning to `CC(C)(C)OC(=O)N[C@H]1CCCCC/C=C\[C@@H]2C[C@@]2(C(=O)O)NC(=O)[C@@H]2C[C@@H](OC(=O)N3CCc4cc(C(F)(F)F)ccc4C3)CN2C1=O` [AR00294383, (1S,4R,6S,14S,18R)-14-tert-Butoxycarbonylamino-2,15-dioxo-18-(6-trifluoromethyl-3,4-dihydro-1H-isoquinoline-2-carbonyloxy)-3,16-diaza-tricyclo[14.3.0.0^4,6]nonadec-7-ene-4-carboxylic acid], the IC50 is under 10 µM.

For the compound `CC(C)(C)OC(=O)N[C@H]1CCCCC/C=C\[C@H]2C[C@]2(C(=O)O)NC(=O)[C@@H]2C[C@@H](OC(=O)N3CCc4ccccc4C3)CN2C1=O` [AR00220122, (1S,4S,6R,14S,18R)-14-tert-Butoxycarbonylamino-18-(3,4-dihydro-1H-isoquinoline-2-carbonyloxy)-2,15-dioxo-3,16-diaza-tricyclo[14.3.0.0^4,6]nonadec-7-ene-4-carboxylic acid], the IC50 is under 50 µM.

For the compound `CN(C)CC1c2ccccc2CCN1C(=O)O[C@@H]1C[C@H]2C(=O)N[C@]3(C(=O)O)C[C@H]3/C=C\CCCCC[C@H](NC(=O)OC(C)(C)C)C(=O)N2C1` (stereo partly drawn) [AR00333224, (1S,4R,6S,14S,18R)-14-tert-Butoxycarbonylamino-18-(1-dimethylaminomethyl-3,4-dihydro-1H-isoquinoline-2-carbonyloxy)-2,15-dioxo-3,16-diaza-tricyclo[14.3.0.0^4,6]nonadec-7-ene-4-carboxylic acid], the half-maximal inhibitory concentration (IC50) is under 10 µM.

Consider `CC(C)NCCOc1ccc2c(c1)CN(C(=O)O[C@@H]1C[C@H]3C(=O)N[C@]4(C(=O)O)C[C@H]4/C=C\CCCCC[C@H](NC(=O)OC(C)(C)C)C(=O)N3C1)C2` [AR00371948, (1S,4R,6S,14S,18R)-14-tert-Butoxycarbonylamino-18-[5-(2-isopropylamino-ethoxy)-1,3-dihydro-isoindole-2-carbonyloxy]-2,15-dioxo-3,16-diaza-tricyclo[14.3.0.0^4,6]nonadec-7-ene-4-carboxylic acid], for which the IC50 was under 0.1 µM.
